Source: patent US20010036944A1, “Certain benzothiazine dioxide endothelin antagonists and processes for their preparation” (priority 1997, published 2001)
Where a name gives a salt, the structure may show the parent alone.

Experiments:
[1] = molecular target: T1, recombinant human ETAR (HETA) (Homo sapiens, UniProt P25101); experiment: Radioligand binding, [125I]ET-1 to membranes of Ltk- cells expressing recombinant human ETAR (HETA); conditions: [125I]ET-1 binding, human ETA, Ltk- cell membranes; read-out: HETA (IC50)
T1 construct: expressed in transfected cells; host or cells: Ltk- cells (membrane preparation)
T1 sequence (P25101 21-427): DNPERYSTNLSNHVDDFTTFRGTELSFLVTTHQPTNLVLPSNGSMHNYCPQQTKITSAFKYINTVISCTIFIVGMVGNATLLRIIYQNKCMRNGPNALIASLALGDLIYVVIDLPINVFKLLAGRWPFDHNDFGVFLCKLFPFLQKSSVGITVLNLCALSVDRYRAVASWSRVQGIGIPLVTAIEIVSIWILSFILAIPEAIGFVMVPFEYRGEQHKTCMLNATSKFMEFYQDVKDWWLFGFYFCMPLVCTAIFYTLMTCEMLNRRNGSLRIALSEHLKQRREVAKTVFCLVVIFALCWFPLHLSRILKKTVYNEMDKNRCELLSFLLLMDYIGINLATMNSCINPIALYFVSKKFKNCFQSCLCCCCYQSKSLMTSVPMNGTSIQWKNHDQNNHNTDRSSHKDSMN
Experimental: (§1) The following cultured cells were used in binding experiments: Ltk-cells expressing recombinant human ETAR (HETA), and CHOKI cells expressing recombinant human ETBR (HETB).
(§2) Membranes were prepared from cultured cells by lysing cells in cold lysis buffer (5 mM HEPES, 2 mM EDTA, pH 7.4) and homogenizing with a Dounce “A” homogenizer. The homogenate was centrifuged at 30,000×g for 20 minutes at […]. Membrane pellets were suspended in cold buffer containing 20 mM Tris, 2 mM EDTA, 200 μM Pefabloc, 10 μM phosphoramidon, 10 μM leupeptin, 1 μM pepstatin at pH 7.4 and frozen at […] until use. Membranes were thawed and homogenized with a Brinkmann Polytron then diluted in tissue buffer containing 20 mM Tris, 2 mM EDTA, 200 μM Pefabloc, and 100 μM bacitracin (pH 7.4). Radioligand and competing ligands were prepared in binding buffer containing 20 mM Tris, 2 mM EDTA, and 0.1% BSA.
(§3) The assay was terminated by filtration over Whatman GF/B filters which were presoaked with 50 mM Tris, pH 7.4 containing 0.2% BSA and 100 μM bacitracin. Nonspecific binding was defined as binding in the presence of 100 nM ET-1.

[2] = molecular target: T2, recombinant human ETBR (HETB) (Homo sapiens, UniProt P24530); experiment: Radioligand binding, [125I]ET-1 to membranes of CHOKI cells expressing recombinant human ETBR (HETB); conditions: [125I]ET-1 binding, human ETB, CHOKI cell membranes
T2 construct: expressed in transfected cells; host or cells: CHOKI (CHO-K1) cells (membrane preparation)
T2 sequence (P24530 27-442): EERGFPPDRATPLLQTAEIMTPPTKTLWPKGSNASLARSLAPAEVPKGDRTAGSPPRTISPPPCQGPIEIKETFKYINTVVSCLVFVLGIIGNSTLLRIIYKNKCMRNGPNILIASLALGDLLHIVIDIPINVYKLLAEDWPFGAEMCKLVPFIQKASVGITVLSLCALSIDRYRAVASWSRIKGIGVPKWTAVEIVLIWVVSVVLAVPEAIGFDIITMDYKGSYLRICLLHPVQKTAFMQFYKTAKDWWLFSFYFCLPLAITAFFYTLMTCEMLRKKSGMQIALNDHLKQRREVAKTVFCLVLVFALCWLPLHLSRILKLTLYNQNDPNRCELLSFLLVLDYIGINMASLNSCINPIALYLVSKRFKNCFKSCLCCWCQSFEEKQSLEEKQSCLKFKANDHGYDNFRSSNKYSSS
Experimental: as §1, §2, §3

[3] = test system: ETA, rabbit femoral artery; experiment: Antagonism of ET-1 stimulated vasoconstriction (VERAA) in the rabbit femoral artery (ETA); conditions: ET-1 stimulated vasoconstriction, rabbit femoral artery
Source text: In Vitro Antagonism of ET-1 Stimulated Vasoconstriction (VERAA) in the Rabbit Femoral Arterv (ETA) and Sarafotoxin 6C Stimulated Vasoconstriction in the Rabbit Pulmonarv Artery (ETB)
Male New Zealand rabbits were killed by cervical dislocation and exsanguination. Femoral and pulmonary arteries were isolated, cleaned of connective tissue, and cut into 4mm rings. The endothelium was denuded by placing the rings over hypodermic tubing (32 gauge for femoral rings and 28 gauge for pulmonary rings, Small Parts, Inc., Miami, Fla.) and gently rolling them. Denuded rings were mounted in 20 mL organ baths containing Krebsbicarbonate buffer (composition in mM: NaCl, 118.2; NaHCO3, 24.8; KCl, 4.6; MgSO4 7H2O, 1.2; KH2PO4, 1.2; CaCl2 2H2O; CaNa2 EDTA, 0.026;, dextrose, 10.0), that was maintained at 37° C. and gassed continuously with 5% CO2 in oxygen (pH 7.4). Resting tension was adjusted to 3.0 g for femoral and 4.0 g pulmonary arteries; the rings were left for 90 minutes to equilibrate. Vascular rings were tested for lack of functional endothelium (ie, lack of an endotheliumdependent relaxation response to carbachol ([…]) in norepinephrine ([…]) contracted rings. Agonist peptides, ET-1 -(femoral), and S6c (pulmonary), were cumulatively added at 10-minute intervals. The ET antagonists were added 30 minutes prior to adding the agonist.

| Compound | IC50 [1] [nM] | IC50 [2] [nM] | VERAA (pA2) [3] |
| --- | --- | --- | --- |
| 4-(3,5-Dimethyl-phenyl)-2-(2-trifluoro-methyl-phenyl)-1,1-dioxo-1,2dihydro-1λ^6-benzo[e][1,2]thiazine-3-carboxylic acid [Example 31] | 6 | > 2500 | 5.7 |
| 4-(6-Methoxybenzo[1,3]dioxol-5-yl)-1,1-dioxo-2-(2-trifluoro-methyl-phenyl)-1,2-dihydro-1λ^6-benzo[e]r [1,2]thiazine-3-carboxylic acid [Example 30] | 95 | > 2500 |  |
| COc1cc(OC)cc(C2=C(C(=O)O)N(c3ccccc3C(F)(F)F)S(=O)(=O)c3ccccc32)c1 [Example 1, 4-(3,5-Dimethoxyphenyl)2-(2-trifluoromethyl-phenyl)-1,1-dioxo-1,2-dihydro-1λ^6-benzo[e][1,2]thiazine-3-carboxylic acid] | 3 | > 2500 | 6.6 |
| COc1cc(OC)cc(C2=C(C(=O)O)N(c3ccccc3Cl)S(=O)(=O)c3ccccc32)c1 [Example 2] | 2 | 7300 | 6.6 |
| COc1cc(OC)cc(C2=C(C(=O)O)N(c3ccccc3Br)S(=O)(=O)c3ccccc32)c1 [Example 3, 2-(2-Bromophenyl)-4-(3,5-dimethoxy-phenyl)-1,1-dioxo-1,2-dihydro-1 λ^6-benzo[e][1,2]thiazine-3-carboxylic acid] | 3 | > 2500 |  |
| COc1cc(C2=C(C(=O)O)N(c3ccccc3Cl)S(=O)(=O)c3ccccc32)cc2c1OCO2 [Example 4, 2-(2-Chloro-phenyl)-4-(7-methoxy-benzo[1,3]dioxol-5-yl)-1,1-dioxo-1,2-dihydro-1λ^6-benzo[e][1,2]-thiazine-3-carboxylic acid] | 3 | 5600 |  |
| COc1cc(C2=C(C(=O)O)N(c3ccccc3Cc3ccccc3)S(=O)(=O)c3ccccc32)cc2c1OCO2 [Example 5, 2-(2-Benzylphenyl)4-(7-methoxy-benzo[1,3]dioxo-5-yl)-1,1-dioxo-1,2-dihydro-1λ^6-benzo[e][1,2]thiazine-3-carboxylic acid] | 4 | 2000 |  |
| COc1cc(C2=C(C(=O)[O-])N(c3c(C)cccc3C)S(=O)(=O)c3ccccc32)cc2c1OCO2.[Na+] [Example 6, 2-(2,6-Dimeth Iphenyl)4-(7-methoxy-benzo-[1,3]dioxol-5vl)-1,1 dioxo 1,2dihydro 1λ^6-benzo[e][1,2]thiazine-3-carboxylic acid monosodium salt] | 4 | > 2500 | 7.1 |
| COc1cc(C2=C(C(=O)O)N(c3ccccc3C)S(=O)(=O)c3ccccc32)cc2c1OCO2 [Example 8, 4-(7-Methoxy-benzo[1,3]dioxol-5-yl)-1,1-dioxo-2o-tolyl-1,2-dihydro-1,6-benzo[e][1,2]-thiazine-3-carboxylic acid] | 8 | 3900 | 6.5 |
| COc1cc(C2=C(C(=O)O)N(c3ccccc3Br)S(=O)(=O)c3ccccc32)cc2c1OCO2 [Example 9, 2-(2-Bromo-phenyl)4-(7-methoxy-benzo[1,3]-dioxol-5-yl)-1,1 dioxo 1,2-dihydro-1λ^6-benzo[e][1,2]-thiazine-3-carboxylic acid monosodium salt] | 2 | > 2500 | 6.9 |
| CCc1ccccc1N1C(C(=O)O)=C(c2ccc3c(c2)OCO3)c2ccccc2S1(=O)=O [Example 13, 4-Benzo [1,3]dioxol-5-yl-2-(2ethyl-phenyl)-1,1-dioxo-1,2-dihydro-1λ^6-benzo[e][1,2]thiazine-3-carboxylic acid] | 23 | > 2500 |  |
| CC(C)c1ccccc1N1C(C(=O)O)=C(c2ccc3c(c2)OCO3)c2ccccc2S1(=O)=O [Example 15, 4-Benzo[1,3]dioxol-5-yl-2-(2isopropylphenyl)-1,1-dioxo 1,2-dihydro 1λ^6-benzo[e][1,2]thiazine-3-carboxylic acid] | 90 | 11000 |  |
| CCCCc1ccccc1N1C(C(=O)O)=C(c2ccc3c(c2)OCO3)c2ccccc2S1(=O)=O [Example 16, 4-Benzo[1,3]dioxol-5-yl-2-(2butylphenyl)-1,1-dioxo-1,2-dihydro-1λ^6-benzo[e][1,2]thiazine-3-carboxylic acid] | 26 | > 2500 |  |
| O=C(O)C1=C(c2ccc3c(c2)OCO3)c2ccccc2S(=O)(=O)N1c1ccccc1F [Example 19, 4-Benzo-[1,3]dioxol-5-yl-2-(2-fluorohenyl)-1,1-dioxo-1,2dihydro-1λ^6-benzo[e]rl[2]thiazine-3-carboxylic acid] | 110 | > 25000 |  |
| O=C(O)C1=C(c2ccc3c(c2)OCO3)c2ccccc2S(=O)(=O)N1c1cccc(Cl)c1Cl [Example 21, 4-Benzo-[1,3]dioxol-5-yl-2-(2,3-dichlorophenyl)1,1-dioxo-1,2dihydro1λ^6-benzo [e][1,2]thiazine-3-carboxylic acid] | 30 | 13000 |  |
| O=C(O)C1=C(c2ccc3c(c2)OCO3)c2ccccc2S(=O)(=O)N1c1ccc(Cl)cc1Cl [Example 22] | 50 | 13000 |  |
| COc1ccc(N2C(C(=O)O)=C(c3ccc4c(c3)OCO4)c3ccccc3S2(=O)=O)c(Cl)c1 [Example 23, 4-Benzo[1,3]dioxol-5-yl-2-(2-chloro-4-methoxyphenyl)-1,1-dioxo-1,2-dihydro-1λ^6-benzo[e][1,2]thiazine-3-carboxylic acid] | 21 | 6200 |  |
| Cc1c(Cl)cccc1N1C(C(=O)O)=C(c2ccc3c(c2)OCO3)c2ccccc2S1(=O)=O [Example 24] | 30 | 17000 |  |
| Cc1cccc(C)c1N1C(C(=O)O)=C(c2ccc3c(c2)OCO3)c2ccccc2S1(=O)=O [Example 26, 4-Benzo[1,3]dioxol-5-yl-2-(2,6dimethyl-phenyl)-1,1-dioxo-1,2dihydro-1λ^6-benzo[e][1,2]thiazine-3-carboxylic acid] | 17 | > 25000 |  |
| O=C(O)C1=C(c2ccc3c(c2)OCO3)c2ccccc2S(=O)(=O)N1c1ccccc1-n1cccc1 [Example 27, 4-Benzo[1,3]dioxol-5-yl-1,1-dioxo-2-(2-2-pyrrol-1-ylphenyl)-1,2-dihydro-1λ^6-benzo[e][12]thiazine-3-carboxylic acid] | 40 | 19000 |  |
| Cc1noc(N2C(C(=O)O)=C(c3ccc4c(c3)OCO4)c3ccccc3S2(=O)=O)c1C [Example 28] | 90 | > 25000 |  |
| O=C(O)C1=C(c2ccc3c(c2)OCO3)c2ccccc2S(=O)(=O)N1c1ccccc1Cc1ccccc1 [Example 29, 4-Benzo[1,3]dioxol-5-yl-2-(2benzylphenyl)-1,1-dioxo-1,2-dihydro-1λ^6-benzo[e][1,2]thiazine-3-carboxylic acid] | 40 | > 2500 |  |
